Measurements from patent publication US5318985A, “Potentiation of NMDA antagonists” (Merrell Dow Pharmaceuticals Inc., priority 1991, dated 1994).
Counter-ions that a name gives are not always drawn. Like-named read-outs stand apart in the source and are kept apart here.

How the values were obtained:
[1] = tested on: sound induced seizures in DBA/2J audiogenic mice; test: inhibition of sound induced seizures in audiogenic mice (anti-epileptic activity); assay type: in vivo; settings: two hours before 110 decibels sound for 30 seconds, 120 min
Description: One method for evaluating the potential anti-epileptic activity of selected compounds is by their ability to inhibit sound induced seizures in audiogenic mice. DBA/2J audiogenic mice experience seizures when exposed to loud noises. Compounds which prevent this phenomenon are considered to be antiepilpetic agents.
Two hours after administration, they were placed individually in glass jars and exposed to a sound stimulus of 110 decibels for 30 seconds. Each mouse was observed during the sound exposure for signs of seizure activity. A graph was prepared based upon the dose administered and the percentage of animals protected at that dose. An ED50 was calculated from the graph. In some mice the test was performed with the only modification being the addition of 100 mg/kg of probenecid IP.
The test was conducted in the following manner.
Five minutes after administration, they were placed individually in glass jars and exposed to a sound stimulus of 110 decibels for 30 seconds. Each mouse was observed during the sound exposure for signs of seizure activity. A graph was prepared based upon the dose administered and the percentage of animals protected at that dose. An ED50 was calculated from the graph. The test was also performed in separate mice with the only modification being the addition of 100 mg/kg or 200 mg/kg of probenecid IP.

[2] = sodium salt; cited from earlier work
[3] = tested on: quinolinic acid induced clonic seizures in mice; test: inhibition of quinolinic acid (intracerebroventricular) induced clonic seizures in mice; assay type: in vivo
Method: The intracerebroventricular administration of quinolinic acid induces clonic seizures in mice.
In this test, groups of 10 mice were pretreated intravenously with varying doses of R-4-Oxo-5-phosphononorvaline(hereinafter compound) ranging from 1 to 16 mg/kg. Five minutes later the mice were administered 7.7 micrograms of quinolinic acid intracerebroventricularly in a volume of 5 microliters of saline. […] A graph was prepared based upon the dose administered and the percentage of animals protected at that dose. An ED50 was calculated from the graph. The test was then repeated in separate mice with the only modification being the addition of 100 mg/kg of probenecid IP. The following ED50 's were obtained.
The protocol described above was repeated except that the compounds was administered intraperitoneally (dosage ranging from 0.5 to 32 mg/kg) and the pretreatment time was extended to 30 minutes. The following ED50 's were obtained.

3-[(phenacyl)methylamino]-2-carboxy-4,6-dichloroindole
ED50 ([1]; compound alone, i.p. 25 to 400 mg/kg): 183.7 mg/kg | ED50 ([1]; compound i.p. + 100 mg/kg probenecid IP): 45.4 mg/kg

CCCN(CCC)S(=O)(=O)c1ccc(C(=O)O)cc1 [sodium salt of probenecid]
water solubility [2]: readily water soluble

N[C@H](CC(=O)CP(=O)(O)O)C(=O)O [R-4-Oxo-5-phosphononorvaline]
ED50 ([3]; Mus musculus, 5 min, compound alone, intravenous 1 to 16 mg/kg, five minutes before quinolinic acid 7.7 micrograms icv, read-out: ED50): 4 mg/kg | ED50 ([3]; Mus musculus, ip, 0.5 h, compound alone, intraperitoneal 0.5 to 32 mg/kg, 30 minutes pretreatment, read-out: ED50): 16.3 mg/kg | ED50 ([3]; compound intraperitoneal + probenecid (protocol as before: 100 mg/kg IP), 30 minutes pretreatment): 8.0 mg/kg | ED50 ([3]; compound intravenous + 100 mg/kg probenecid IP, five minutes before quinolinic acid 7.7 micrograms icv, 5 min): 2.3 mg/kg
